Calls of active or inactive are those of the source.
Assays:
[1] = target: T1, Rac GTPase-activating protein 1 (Homo sapiens, UniProt Q9H0H5); experiment: MgcRacGAP GTPase-activating activity inhibitors, confirmation, biochemical, ADP Hunter fluorescence, primary and confirmatory (AID 624330); format: functional
T1 sequence (Q9H0H5 whole entry): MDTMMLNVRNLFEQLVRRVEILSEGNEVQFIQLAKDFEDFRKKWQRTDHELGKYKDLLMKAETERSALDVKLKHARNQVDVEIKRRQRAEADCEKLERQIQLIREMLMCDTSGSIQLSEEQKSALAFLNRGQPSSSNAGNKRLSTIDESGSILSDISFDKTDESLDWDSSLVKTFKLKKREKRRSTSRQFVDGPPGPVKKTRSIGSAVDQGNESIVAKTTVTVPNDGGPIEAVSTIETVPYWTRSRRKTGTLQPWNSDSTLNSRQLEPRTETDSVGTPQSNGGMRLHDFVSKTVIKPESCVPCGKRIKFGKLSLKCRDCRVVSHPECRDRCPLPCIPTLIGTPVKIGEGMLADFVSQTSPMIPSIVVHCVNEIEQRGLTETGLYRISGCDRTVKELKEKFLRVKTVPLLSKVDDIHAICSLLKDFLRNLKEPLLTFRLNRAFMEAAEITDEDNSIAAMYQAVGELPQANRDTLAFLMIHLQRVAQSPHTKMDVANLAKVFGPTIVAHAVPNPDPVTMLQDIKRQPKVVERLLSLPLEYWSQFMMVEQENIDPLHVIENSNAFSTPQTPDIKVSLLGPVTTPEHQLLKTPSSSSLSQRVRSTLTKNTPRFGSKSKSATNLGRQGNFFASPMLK

[2] = cytotoxicity in HEK-293T NF-kB-Luc cells, dose response, cytotoxicity control for B/T-cell NF-kB inhibitor project, cell-based, uHTS hits (AID 489019); format: functional;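 also: IC50 reflects cytotoxicity as loss of cell viability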
[3] = inhibitors of SNCA 5'UTR-driven reporter translation, confirmation, H4 neuroglioma cells, luminescence (AID 1988); format: functional, cell-based
Jurkat = experiment: antigen receptor-induced NF-kB inhibitors, dose response, Jurkat, luciferase reporter, luminescence, B- and T-cell (AID 489004); format: functional, cell-based; conditions: Homo sapiens;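 also: NF-kB luciferase reporter Jurkat cells stimulated with PMA plus ionomycin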
[4] = Luminescence Cell-Based Dose Response HTS to Identify Inhibitors of 5'UTR Stem-Loop Driven Prion Protein mRNA Translation in H4 Neuroglioblastoma Cells. [Related pubchem assays: 1827 (Project Summary), 1813 (Primary HTS)]; format: functional
[5] = HeLa cell cytotoxicity, dose response, cytotoxicity control for MgcRacGAP inhibitor project (AID 624300); format: functional
[6] = inhibitors of firefly luciferase expression or activity, dose response, H4 neuroglioma cells, luminescence (AID 1990); format: functional, cell-based
A-375 [7] = experiment: MITF: Counter assay: A375 proliferation Measured in Cell-Based System Using Plate Reader - 2084-03_Inhibitor_Dose_DryPowder_Activity. [Related pubchem assays (depositor defined):AID488944]; format: functional; conditions: Homo sapiens
[8] = target: T2, Microphthalmia-associated transcription factor (Homo sapiens, UniProt O75030); experiment: TRPM1 promoter luciferase signal decrease, dose response, MITF inhibitor project, cell-based, SK-MEL-5, cherry-picked, set 3 (AID 493073); format: functional
T2 sequence (O75030 whole entry): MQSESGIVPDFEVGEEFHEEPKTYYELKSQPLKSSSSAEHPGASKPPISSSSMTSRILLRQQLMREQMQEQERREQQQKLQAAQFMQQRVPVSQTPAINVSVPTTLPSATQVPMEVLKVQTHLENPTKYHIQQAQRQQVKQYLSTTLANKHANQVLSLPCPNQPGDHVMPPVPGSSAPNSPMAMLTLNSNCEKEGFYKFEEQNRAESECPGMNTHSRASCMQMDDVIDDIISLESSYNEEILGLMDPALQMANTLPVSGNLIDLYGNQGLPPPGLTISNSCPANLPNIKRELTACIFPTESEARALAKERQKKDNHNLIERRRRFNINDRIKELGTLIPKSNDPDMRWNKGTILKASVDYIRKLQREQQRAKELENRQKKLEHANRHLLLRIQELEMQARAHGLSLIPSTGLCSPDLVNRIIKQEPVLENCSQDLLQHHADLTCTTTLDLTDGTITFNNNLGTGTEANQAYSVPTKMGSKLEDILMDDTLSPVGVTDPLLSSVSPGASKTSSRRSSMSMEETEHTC

A-375 [9] = experiment: A375 melanoma cell viability reduction, dose response, counter-screen for MITF modulator project, cherry-pick samples, set 2 (AID 540335); format: functional, cell-based; conditions: Homo sapiens
HEK293 [10] = experiment: cells; conditions: Homo sapiens
HEK293 [11] = experiment: cells; conditions: Homo sapiens; remark: listed apart in the source
[12] = THP-1 cell cytotoxicity, dose response, cytotoxicity control for non-replicating M. tuberculosis project (AID 489025); format: functional
[13] = target: Heat shock protein HSP 90-alpha (Homo sapiens, UniProt P07900); format: functional, organism-based
[14] = target: Intestinal-type alkaline phosphatase (Mus musculus, UniProt P24822); experiment: PubChem AID 488785; format: functional
cells = format: functional
[15] = target: T3, Alkaline phosphatase, tissue-nonspecific isozyme (Homo sapiens, UniProt P05186); experiment: TNAP enzyme inhibition by screening hits, dose response, selectivity assay for mouse IAP inhibitor project, biochemical, human TNAP, uHTS hits (AID 488906); format: functional
T3 sequence (P05186 whole entry): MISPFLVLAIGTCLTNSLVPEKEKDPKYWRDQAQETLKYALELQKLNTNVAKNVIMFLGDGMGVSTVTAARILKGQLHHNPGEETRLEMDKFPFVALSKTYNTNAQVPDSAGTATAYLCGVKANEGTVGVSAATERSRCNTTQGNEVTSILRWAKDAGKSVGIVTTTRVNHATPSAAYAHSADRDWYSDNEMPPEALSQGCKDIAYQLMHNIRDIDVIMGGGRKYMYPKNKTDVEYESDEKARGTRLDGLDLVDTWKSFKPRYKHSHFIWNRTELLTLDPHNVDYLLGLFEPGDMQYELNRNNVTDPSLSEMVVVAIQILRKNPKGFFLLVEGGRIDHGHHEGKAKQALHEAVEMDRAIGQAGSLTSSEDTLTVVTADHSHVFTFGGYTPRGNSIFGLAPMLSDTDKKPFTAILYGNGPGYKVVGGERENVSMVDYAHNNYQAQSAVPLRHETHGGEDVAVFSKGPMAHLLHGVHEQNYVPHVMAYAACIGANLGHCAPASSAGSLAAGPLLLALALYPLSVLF

[16] = target: Intestinal-type alkaline phosphatase (Homo sapiens, UniProt P09923); experiment: inhibition of human intestinal alkaline phosphatase – biochemical, dose response (AID 488876); format: functional
[17] = microbe, parasite or virus in culture; format: functional; conditions: Mycobacterium tuberculosis
[18] = Vero E6 cell cytotoxicity, dose response, cytotoxicity control for non-replicating M. tuberculosis project, secondary assay (AID 492998); format: functional, VeroE6; conditions: Vero C1008

Sequence of Intestinal-type alkaline phosphatase (Homo sapiens, UniProt P09923) (P09923 whole entry): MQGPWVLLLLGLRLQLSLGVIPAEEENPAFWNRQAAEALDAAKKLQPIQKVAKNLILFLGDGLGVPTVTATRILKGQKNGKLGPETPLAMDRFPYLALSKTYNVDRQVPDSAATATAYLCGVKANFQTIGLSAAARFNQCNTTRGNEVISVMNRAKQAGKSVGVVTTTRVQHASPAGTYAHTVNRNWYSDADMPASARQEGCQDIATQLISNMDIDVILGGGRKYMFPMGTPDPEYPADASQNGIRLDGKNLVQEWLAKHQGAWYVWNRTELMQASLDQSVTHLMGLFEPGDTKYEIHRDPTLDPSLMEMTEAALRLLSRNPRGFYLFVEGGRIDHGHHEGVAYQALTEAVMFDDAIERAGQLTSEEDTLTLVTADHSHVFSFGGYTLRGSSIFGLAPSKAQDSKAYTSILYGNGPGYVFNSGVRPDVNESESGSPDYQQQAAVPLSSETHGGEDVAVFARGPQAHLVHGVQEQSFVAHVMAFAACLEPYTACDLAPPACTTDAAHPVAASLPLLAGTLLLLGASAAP
Sequence of Intestinal-type alkaline phosphatase (Mus musculus, UniProt P24822) (P24822 whole entry): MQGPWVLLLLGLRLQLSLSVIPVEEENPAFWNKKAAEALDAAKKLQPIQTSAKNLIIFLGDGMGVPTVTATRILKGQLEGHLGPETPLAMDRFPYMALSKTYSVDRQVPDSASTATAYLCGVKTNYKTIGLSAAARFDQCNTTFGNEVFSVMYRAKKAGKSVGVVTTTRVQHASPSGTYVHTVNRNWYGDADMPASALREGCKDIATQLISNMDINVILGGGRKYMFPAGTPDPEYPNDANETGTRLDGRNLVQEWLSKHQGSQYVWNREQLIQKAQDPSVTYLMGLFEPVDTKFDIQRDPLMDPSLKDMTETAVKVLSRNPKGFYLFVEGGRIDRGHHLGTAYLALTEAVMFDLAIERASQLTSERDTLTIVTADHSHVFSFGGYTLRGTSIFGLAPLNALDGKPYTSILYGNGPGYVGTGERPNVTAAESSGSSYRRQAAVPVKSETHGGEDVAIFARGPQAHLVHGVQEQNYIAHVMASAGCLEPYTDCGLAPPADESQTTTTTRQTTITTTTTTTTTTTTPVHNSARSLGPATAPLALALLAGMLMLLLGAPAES

COc1ccc(CNc2ncc(-c3ccc(F)cc3)n2C)c2ccccc12
active: IC50 [1] 62.6 µM | EC50 [3] 1.22 µM | IC50 (Jurkat) 1.97 µM | EC50 [4] 6.58 µM | CC50 [5] 100 µM | EC50 [6] 10 µM
inactive: IC50 [2] > 80 µM

CC1CCN(Cc2nc(-c3ccc(Cl)cc3)no2)CC1
active: AC50 (A-375 [7]) > 35 µM | AC50 [8] 7.62 µM | AC50 (A-375 [9]) > 35 µM

Cc1ccc(-c2nc(C#N)c(NCc3ccco3)o2)cc1
active: AC50 (A-375 [7]) > 35 µM | AC50 (A-375 [9]) > 35 µM

CCCCn1c(SCc2ccc(Cl)cc2)nc2c1c(=O)[nH]c(=O)n2C
inactive: EC50 (HEK293 [10]) > 59.6 µM | EC50 (HEK293 [11]) > 59.6 µM
active: EC50 [3] 17 µM | EC50 [4] 16.2 µM | EC50 [6] 15.8 µM

CCOC(=O)[C@@H](C)N(Cc1ccc(OC)cc1)S(=O)(=O)N(Cc1ccccc1)[C@H](C(=O)OC)C(C)C
inactive: EC50 (HEK293 [10]) > 59.7 µM | EC50 (HEK293 [11]) > 59.7 µM

O=C(N/N=C/c1ccc([N+](=O)[O-])o1)c1sc2ccccc2c1Cl
inactive: IC50 [15] > 100 µM | IC50 [16] > 100 µM
active: CC50 [12] 19.1 µM | AC50 [13] 4.4 µM | IC50 [14] 7.89 µM | IC50 (cells) 2.18 µM | AC50 (A-375 [7]) > 11 µM | AC50 [8] 4.61 µM | CC50 [17] 20.2 µM | AC50 (A-375 [9]) > 11 µM | CC50 [18] > 20 µM

Source: ChEMBL document CHEMBL1201862, “PubChem BioAssay data set” (2004)
